Results reported in patent US20210382058A1, “PATIENT SELECTION FOR TREATMENT OF MYC POSITIVE CANCERS WITH INDENOISOQUINOLINES” (Purdue Research Foundation, priority 2020, published 2021).

How the values were obtained:
MycG4 (MycPu22 DNA) = assay: 1H NMR titration of MycPu22 DNA; format: binding, human; details: 150 μM DNA, 25° C., pH 7, 100 mM K+
Source text: The binding interactions of six selected indenoisoquinolines with MycG4 were examined using ^1H NMR titration experiments in K^+-containing solution. […] The binding appeared to be in the medium-to-fast exchange rate on the NMR time-scale, as shown by the broadening of DNA proton peaks at lower drug equivalence (0.5 and 1) and the sharpening at higher drug equivalence (2 and 3). […] The MycG4 complexes of the five MycG4-interactive indenoisoquinolines were monomeric in nature as shown by native EMSA gels (FIG. 13).
All NMR experiments were conducted using a Bruker AV-500 spectrometer equipped with a Prodigy cryoprobe at 25° C. Watergate water suppression technique was used to suppress water signals. Briefly, each DNA sample was prepared to a final concentration of […] in 75 mM KCl, 25 mM phosphate buffer at pH 7.0, and containing 90/10% H2O/D2O. DNA samples were heated to 95° C. for 5 min then cooled slowly to room temperature for G4 formation. ^1H-NMR titrations were performed by adding increasing amounts of the compound (0.5 to 4 equivalents) to the oligonucleotide solution.

MycPu22 = assay: Competition fluorescence displacement, competitor MycPu22; design: species or system human; details: competitor binding affinity; 20 nM 3′-TAMRA MycPu22, 20 nM compound, 20° C., pH 7, 100 mM K+
Method: (§1) Using a competition fluorescence displacement assay, the binding selectivity of five indenoisoquinolines for MycG4 was determined as compared to a parallel K-Ras promoter G4, a hybrid telomeric G4, and double-stranded (ds) DNA at 1 and 5 equivalents of each compound (FIGS. 7 and 16A-16C). The 3′-TAMRA labeled MycPu22 DNA was used as the fluorescence probe, whose fluorescence was quenched upon the binding of indenoisoquinolines. Upon addition of unlabeled, non-fluorescent competitors (e.g. other DNA G4s and dsDNA), the TAMRA-labeled MycPu22 DNA is displaced by the competitor DNA for indenoisoquinoline binding and the initial high TAMRA-fluorescence is restored. The competition fluorescence displacement assay allows for a straightforward assessment of selective binding towards MycG4 vs. the competitors, i.e. MycG4s (parallel), K-Ras G4 (parallel), telomeric G4 (hybrid), and dsDNA. One and five compound equivalents were used to assess the selectivity of the strongest binding site and other binding sites of each indenoisoquinoline. […] As shown in the modeling study, the substituents on the A- and D-rings of indenoisoquinolines likely contribute to binding MycG4 by more optimal stacking interactions with the external G-tetrads. On the other hand, the increased size of the indenoisoquinoline ring system may hinder intercalation in dsDNA due to possible steric collision with the DNA backbone. […] 6-Substituted indenoisoquinolines were previously reported to bind to the c-Kit promoter G4s which were also primarily parallel.^17
(§2) The competition fluorescence displacement experiments were performed on a Jasco FP-8300 Spectrofluorometer equipped with a temperature controller at 20° C. The stock solution containing 2 μM 3′-TAMRA-labelled MycPu22 oligonucleotide was diluted to 20 nM using 75 mM KCl, 25 mM phosphate buffer at pH 7.0. To check the binding selectivity of each compound to MycG4 DNA, 20 nM or 100 nM of the indenoisoquinoline was added to the DNA solution in a total volume of 1.6 mL in a quartz cell with a 10 mm path length. Subsequently, various unlabeled MycG4s (MycPu22 and MycPu28), K-Ras G4, telomeric G4 DNAs, or calf thymus dsDNA were gradually added to the complex solution. For each addition of the DNA, the sample was equilibrated at least 2 min. The fluorescence spectrum was recorded between 570 and 600 nm with an excitation wavelength of 555 nm, 10 nm bandwidths, 100 nm/min of scan speed, and 1 s of response time. The fluorescence intensities at the emission maximum (Δmax=580 nm) were plotted for figures. The competitor binding affinities (K, values) were calculated by
(§3) using data from 20 nM compound. The C50 value was the concentration of the unlabeled competing DNA that recovers the fluorescence of the labelled DNA by 50%. [L] represents the ligand concentration that is a constant value of 20 nM. Kd,app values were obtained by fluorescence-based binding assay.

MycPu28 = assay: Competition fluorescence displacement, competitor MycPu28; design: species or system human; details: competitor binding affinity; 20 nM 3′-TAMRA MycPu22, 20 nM compound, 20° C., pH 7, 100 mM K+
Method: as §1, §2, §3

[1] = target: K-RasG4 (parallel K-Ras promoter G4); assay: Competition fluorescence displacement, competitor K-Ras G4; details: competitor binding affinity; 20 nM 3′-TAMRA MycPu22, 20 nM compound, 20° C., pH 7, 100 mM K+
Method: as §1, §2, §3

Telomeric G4 (hybrid) = assay: Competition fluorescence displacement, competitor telomeric G4; format: binding; details: for binding selectivity for parallel G4s over hybrid G4: competition fluorescence displacement, 1 and 5 equivalents; for Ki: competitor binding affinity, 20 nM 3′-TAMRA MycPu22, 20 nM compound, 20° C., pH 7, 100 mM K+
Method: as §1, §2, §3

calf thymus dsDNA = assay: Competition fluorescence displacement, competitor dsDNA; format: binding; details: for binding selectivity for DNA G4s over dsDNA: competition fluorescence displacement, 1 and 5 equivalents; for Ki: competitor binding affinity, Ki refers to the base-pair concentration, 20 nM compound, 20° C., pH 7, 100 mM K+
Method: as §1, §2, §3

SMILES	binding to MycG4 by 1H NMR titration (MycG4 (MycPu22 DNA))	Ki (MycPu22)	Ki (MycPu28)	Ki [1]	binding selectivity for parallel G4s over hybrid G4 (Telomeric G4 (hybrid))	Ki (Telomeric G4 (hybrid))	binding selectivity for DNA G4s over dsDNA (calf thymus dsDNA)	Ki (calf thymus dsDNA)
COc1cnc2c(c1)C(=O)c1c-2n(CCCNC(C)C)c(=O)c2cc(F)ccc12 [Compound 5]	more specific binding to MycG4	16 nM	18 nM	21 nM	marked selectivity	164 nM	remarkable selectivity	~11000 nM
CNCCCn1c2c(c3ccc(F)cc3c1=O)C(=O)c1cc(OC)cnc1-2 [Compound 6]	more specific binding to MycG4	40 nM	33 nM	32 nM	marked selectivity	286 nM	remarkable selectivity	~12000 nM
COc1cnc2c(c1)C(=O)c1c-2n(CCCN2CCCC2)c(=O)c2cc([N+](=O)[O-])ccc12 [Compound 9]	less well-defined MycG4 complexes	12 nM	11 nM	11 nM	much less selectivity	28 nM	remarkable selectivity	5170 nM
COc1cnc2c(c1)C(=O)c1c-2n(CCCNC2=NCCS2)c(=O)c2cc([N+](=O)[O-])ccc12 [Compound 12]	less well-defined MycG4 complexes	7 nM	7 nM	7 nM	much less selectivity	14 nM	remarkable selectivity	3620 nM
O=C1c2ccccc2-c2c1c1ccccc1c(=O)n2CCCNCCO [Compound 13]	more specific binding to MycG4	26 nM	19 nM	23 nM	selectivity for parallel G4s over hybrid G4	146 nM	much less selectivity against dsDNA	2140 nM
